Experimental data taken from PubChem BioAssay (NCI).
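Exposure lasted 48 hours, with cells grown in 96-well plates and compounds tested at five concentrations. TGI: concentration producing complete growth inhibition.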

What was measured:
Assay in all cases: DTP human tumour cell line panel, 48 h
SNB-75 CNS = test system: SNB-75 CNS
TK-10 renal = test system: TK-10 renal
A549 NSCLC = test system: A549 NSCLC
SK-MEL-28 melanoma = test system: SK-MEL-28 melanoma
K-562 leukemia = test system: K-562 leukemia
NCI-H522 lung = test system: NCI-H522 lung
KM12 colon = test system: KM12 colon
HCC-2998 colon = test system: HCC-2998 colon
SK-MEL-5 melanoma = test system: SK-MEL-5 melanoma
M14 melanoma = test system: M14 melanoma
OVCAR-8 ovarian = test system: OVCAR-8 ovarian
NCI-H460 lung = test system: NCI-H460 lung
MALME-3M melanoma = test system: MALME-3M melanoma
SNB-19 CNS = test system: SNB-19 CNS
HCT-116 colon = test system: HCT-116 colon
NCI/ADR-RES ovarian = test system: NCI/ADR-RES ovarian
T-47D breast = test system: T-47D breast
SK-OV-3 ovarian = test system: SK-OV-3 ovarian
PC-3 prostate = test system: PC-3 prostate

SMILES	TGI (SNB-75 CNS)	TGI (TK-10 renal)	TGI (A549 NSCLC)	TGI (SK-MEL-28 melanoma)	TGI (K-562 leukemia)	TGI (NCI-H522 lung)	TGI (KM12 colon)	TGI (HCC-2998 colon)	TGI (SK-MEL-5 melanoma)	TGI (M14 melanoma)	TGI (OVCAR-8 ovarian)	TGI (NCI-H460 lung)	TGI (MALME-3M melanoma)	TGI (SNB-19 CNS)	TGI (HCT-116 colon)	TGI (NCI/ADR-RES ovarian)	TGI (T-47D breast)	TGI (SK-OV-3 ovarian)	TGI (PC-3 prostate)
COc1ccccc1-n1c(N)c2c(C)c(-c3ccccc3)[nH]c2nc1=S	> 100 µM	> 100 µM	> 100 µM	> 100 µM	> 100 µM	> 100 µM	> 100 µM	> 100 µM	> 100 µM	> 100 µM	> 100 µM	> 100 µM	> 100 µM	> 100 µM	> 100 µM	–	–	–	–
NC(=O)c1nnsc1NN=O	> 100 µM	–	> 100 µM	> 100 µM	> 100 µM	> 100 µM	> 100 µM	> 100 µM	> 100 µM	> 100 µM	> 100 µM	> 100 µM	> 100 µM	> 100 µM	> 100 µM	> 100 µM	> 100 µM	> 100 µM	> 100 µM
COc1cc(C(C[N+](=O)[O-])SC(C)=O)ccc1OCc1ccccc1 (stereo not drawn)	32.4 µM	14.7 µM	25.4 µM	6.79 µM	5.45 µM	13.9 µM	14 µM	46.6 µM	21.9 µM	11.2 µM	13.6 µM	25.1 µM	17.5 µM	20.9 µM	8.26 µM	> 38.3 µM	54.5 µM	29.6 µM	17.4 µM
CC1(C)OCN(c2ccc(S(N)(=O)=O)cc2)Cn2c1nc1ccccc12	> 100 µM	> 100 µM	> 100 µM	> 100 µM	> 100 µM	> 100 µM	> 100 µM	> 100 µM	–	> 100 µM	> 100 µM	> 100 µM	> 100 µM	> 100 µM	> 100 µM	–	–	> 100 µM	–
COc1cc(OC)c2c(=O)c3c([N+](=O)[O-])cccc3n(C)c2c1	> 100 µM	> 100 µM	> 100 µM	> 100 µM	> 100 µM	> 100 µM	> 100 µM	> 100 µM	> 100 µM	> 100 µM	> 100 µM	> 100 µM	> 100 µM	> 100 µM	> 100 µM	–	–	> 100 µM	–
C=C1C(=O)O[C@H]2C/C(C)=C/CC[C@]3(C)CCC[C@](C)(CC[C@@H]12)O3	43.6 µM	18.4 µM	> 50 µM	15.8 µM	18.8 µM	13 µM	17.4 µM	14.5 µM	13.8 µM	–	15.2 µM	16.9 µM	–	> 50 µM	20.1 µM	15.8 µM	25.9 µM	> 50 µM	41.5 µM
C/C(=N\NC(=S)NC(CCC(=O)O)C(=O)O)c1cnccn1 (stereo not drawn)	> 100 µM	> 100 µM	> 100 µM	> 100 µM	> 100 µM	> 100 µM	> 100 µM	> 100 µM	> 100 µM	> 100 µM	> 100 µM	> 100 µM	> 100 µM	> 100 µM	> 100 µM	–	–	> 100 µM	–
Oc1cnc2c(O)cccc2c1	79.9 µM	> 100 µM	> 100 µM	> 100 µM	> 100 µM	> 100 µM	> 100 µM	> 100 µM	–	> 100 µM	80.5 µM	> 100 µM	> 100 µM	> 100 µM	> 100 µM	66.5 µM	91.6 µM	> 100 µM	> 100 µM
O=C(Cn1c(=O)oc2ccc(C(=O)c3ccc(F)cc3)cc21)c1ccccc1	> 100 µM	> 100 µM	> 100 µM	> 100 µM	> 100 µM	> 100 µM	> 100 µM	> 100 µM	> 100 µM	> 100 µM	> 100 µM	> 100 µM	> 100 µM	> 100 µM	> 100 µM	> 100 µM	> 100 µM	> 100 µM	> 100 µM
CCOc1ccc(/C=C(\Cl)c2ccc(OC)cc2)cc1	> 100 µM	–	> 100 µM	> 100 µM	> 100 µM	> 100 µM	–	> 100 µM	> 100 µM	> 100 µM	> 100 µM	–	> 100 µM	> 100 µM	> 100 µM	–	–	> 100 µM	–
CCOC(=O)[C@@H]1ON2O[C@H](OC3CCCCC3c3ccccc3)C[C@H]3OC(=O)[C@@H]1C32 (stereo partly drawn)	> 100 µM	> 100 µM	> 100 µM	–	> 100 µM	> 100 µM	> 100 µM	> 100 µM	> 100 µM	> 100 µM	> 100 µM	> 100 µM	–	–	> 100 µM	> 100 µM	> 100 µM	> 100 µM	–
CCOC(=O)N(C)C(=C(F)F)C(F)(F)F	93.1 µM	97.8 µM	> 100 µM	> 100 µM	62.1 µM	–	> 100 µM	37.7 µM	30 µM	46.5 µM	79.4 µM	> 100 µM	33.5 µM	–	55.2 µM	> 100 µM	92.1 µM	> 100 µM	> 100 µM
O=C(Cc1ccc([N+](=O)[O-])c([N+](=O)[O-])c1CC(=O)C(=O)Nc1cc(Cl)ccc1Cl)C(=O)Nc1cc(Cl)ccc1Cl	> 100 µM	> 100 µM	> 100 µM	> 100 µM	> 100 µM	–	> 100 µM	> 100 µM	> 100 µM	> 100 µM	> 100 µM	> 100 µM	> 100 µM	> 100 µM	> 100 µM	–	–	> 100 µM	–
CSC1=C(C(=O)Nc2ccc(C)cc2)C(N)=NC1=O	> 100 µM	> 100 µM	–	> 100 µM	> 100 µM	–	> 100 µM	> 100 µM	> 100 µM	> 100 µM	> 100 µM	> 100 µM	–	> 100 µM	> 100 µM	> 100 µM	> 100 µM	> 100 µM	–
